Measured values: patent US10159670B2, “Methods of diagnosing and treating motor neuron diseases and other cellular stress-related diseases” (priority 2012, dated 2018)

Columns and labels:
[1] = tested on: NSC-34 cells; test: Stress-induced change of pre-miRNA processing in NSC-34 cells (qPCR); assay type: cell-based; conditions: 1 hr, 0.5 mM
Description: (FIG. 7A) miRNA expression level analysis in the motor neuron cell line NSC-34, treated with 6.25 nM Thapsigargin for 24 hrs, relative to cells treated with carrier alone (DMSO). Shown are average and s.d. of qPCR analyses of 3 independent experiments. Pre-miRNAs (light grey, normalized to Gapdh) and miRNAs (dark grey, normalized to Snord68). (FIG. 7B) mRNA levels encoding for proteins involved in the canonical stress response, normalized to the expression of beta-actin. (FIG. 7C) miRNA expression level analysis in mouse embryonic motor neurons, treated with 5 nM Thapsigargin for 72 hrs, relative to cells treated with carrier alone (DMSO). Shown are average and s.d. of qPCR analyses of three independent experiments. Pre-miRNAs (light grey, normalized to Gapdh and beta actin) and miRNAs (dark grey, normalized to Snord70). (FIG. 7D) mRNA markers of the canonical stress response, normalized to the expression of beta-actin. miRNA expression level analysis in NSC-34 cells, treated with Paraquat (PQ) (1 mM, 12 hrs, FIG. 7E) and sodium arsenite (0.5 mM, 60 min, FIG. 7F). pre-miRNA normalized to beta-actin mRNA (FIGS. 7E-F) and miRNAs to 5S (FIG. 7E) or to U6 and 5S (FIG. 7F). (FIGS. 7G-I) miRNA expression level analysis in mouse embryonic Wild-type fibroblasts (light grey) or phospho-mutant eIF2a S51A cells (black) treated with Thapsigargin (5 nM, 72 hrs) relative to carrier alone. Pre-miRNA (FIG. 7G) and mature miRNA (FIG. 7H) levels normalized to Gapdh and Snord68, respectively. (FIG. 7I) ATF4, which is induced by phosphorylation of eIF2a, was not induced in phospho-mutant eIF2a S51A cells. Significance of p-values from ANOVA tests is indicated by *p<0.05; **p<0.01. (FIGS. 7J-K) Western-Blot analysis of lysates from untreated NSC-34 cells (control) or cells treated with sodium arsenite (0.5 mM, 60 min). Phospho-specific immunodetection of eIF2a S51 phosphorylation (peIF2a) and total eIF2a levels (FIG. 7J), Dicer and Ago2 levels (FIG. 7K). (FIG. 7L) miRNA expression level analysis in mouse embryonic fibroblasts treated with Puromycin (1 μg/ml, 24 hrs), relative to cells treated with carrier alone (water). Pre-miRNAs (light grey, normalized to Gapdh) and miRNAs (dark grey, normalized to Snord68).
RNA was extracted using Tri reagent (Molecular Research Center Inc.) or Qiazol with consecutive use of the miRNeasy Mini Kit (Qiagen). Pre-miRNA and miRNA reverse transcription was performed using miScript Kits No. I & II (Qiagen). Quantitative analysis of miRNA and pre-miRNA expression performed in more than 3 independent biological repeats and additionally in technical duplicates with StepOnePlus quantitative Real-Time PCR System and 2-sided ANOVA-test performed with DataAssist Software (Life technologies Inc.). Next-generation sequencing of mouse precursor miRNAs and mature miRNAs was performed on two independent experimental repeats, as described in Newman et al. [Newman et al. (2011) RNA 17(10): 1795-1803]. miRNAs were normalized to spiked-in controls and pre-miRNAs were normalized to Snord72 and Snord95.
Stress and cytoplasmic stress granules (SGs) emerge as major pathogenic mechanisms of ALS [Kim et al. (2014) Nat Genet 46(2): 152-160]. Stress pathways are thought to control miRNA activity [Etude and Hornstein, EMBO J. (2014) July 1; 33(13):1428-37], but the idea that cellular stress might broadly regulate miRNA biogenesis was not yet tested. This hypothesis was tested herein by measurement of the relative expression levels of mature miRNAs and their precursors, pre-miRNAs, which provides a proxy for the efficacy of Dicer complex activity. […] Two other chemicals were tested that drive oxidative stress, namely Paraquat (PQ, 12 hrs, 1 mM) and sodium arsenite (1 hr, 0.5 mM). […] Therefore, several different cellular stress pathways negatively regulate miRNA biogenesis.

[2] = tested on: eIF2a; test: Western blot of eIF2a S51 phosphorylation in NSC-34 cells; assay type: cell-based; conditions: 0.5 mM; 1 hr
Description: (FIG. 7A) miRNA expression level analysis in the motor neuron cell line NSC-34, treated with 6.25 nM Thapsigargin for 24 hrs, relative to cells treated with carrier alone (DMSO). Shown are average and s.d. of qPCR analyses of 3 independent experiments. Pre-miRNAs (light grey, normalized to Gapdh) and miRNAs (dark grey, normalized to Snord68). (FIG. 7B) mRNA levels encoding for proteins involved in the canonical stress response, normalized to the expression of beta-actin. (FIG. 7C) miRNA expression level analysis in mouse embryonic motor neurons, treated with 5 nM Thapsigargin for 72 hrs, relative to cells treated with carrier alone (DMSO). Shown are average and s.d. of qPCR analyses of three independent experiments. Pre-miRNAs (light grey, normalized to Gapdh and beta actin) and miRNAs (dark grey, normalized to Snord70). (FIG. 7D) mRNA markers of the canonical stress response, normalized to the expression of beta-actin. miRNA expression level analysis in NSC-34 cells, treated with Paraquat (PQ) (1 mM, 12 hrs, FIG. 7E) and sodium arsenite (0.5 mM, 60 min, FIG. 7F). pre-miRNA normalized to beta-actin mRNA (FIGS. 7E-F) and miRNAs to 5S (FIG. 7E) or to U6 and 5S (FIG. 7F). (FIGS. 7G-I) miRNA expression level analysis in mouse embryonic Wild-type fibroblasts (light grey) or phospho-mutant eIF2a S51A cells (black) treated with Thapsigargin (5 nM, 72 hrs) relative to carrier alone. […]

O=[As]O [sodium arsenite]
mature miRNAs [1]: down-regulation of mature miRNAs
pre-miRNA levels [1]: up-regulation of pre-miRNA levels
phosphorylation of eIF2a [2]: sufficient to induce the phosphorylation of eIF2a
